# Source: patent US12077503B2, “Substituted cyclic amides and their use as herbicides” (FMC CORPORATION, priority 2015, dated 2024)
# What was measured:
# Format in all cases: in vivo
# [1] = test system: ragweed (common ragweed, Ambrosia elatior); experiment: Test A preemergence; conditions: Ambrosia artemisiifolia, pre-emergence, 240 h, 0 to 100 scale where 0 is no effect and 100 is complete control, read-out: Ragweed plant response rating
# Procedure, shortened: (§1)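 Treatment is preemergence as a directed soil spray after planting, or postemergence at the one- to two-leaf stage, with test chemical in a non-phytotoxic solvent mixture plus surfactant. Plants stay in the greenhouse about 10 d before visual injury scoring on a 0 to 100 scale versus untreated controls.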
# [2] = test system: pigweed (Amaranthus retroflexus); experiment: Test A preemergence; conditions: Amaranthus retroflexus, pre-emergence, 240 h, 0 to 100 scale where 0 is no effect and 100 is complete control, read-out: Pigweed plant response rating
# [3] = test system: barnyardgrass (Echinochloa crus-galli); experiment: Test A preemergence; conditions: Echinochloa crus-galli, pre-emergence, 240 h, 0 to 100 scale where 0 is no effect and 100 is complete control, read-out: Barnyardgrass plant response rating
# Procedure, shortened: as §1
# Kochia (Kochia scoparia) [4] = experiment: Test A preemergence; conditions: Bassia scoparia, pre-emergence, 240 h, 0 to 100 scale where 0 is no effect and 100 is complete control, read-out: Kochia plant response rating
# Procedure, shortened: as §1
# [5] = test system: ryegrass, Italian (Italian ryegrass, Lolium multiflorum); experiment: Test A preemergence; conditions: Lolium multiflorum, pre-emergence, 240 h, 0 to 100 scale where 0 is no effect and 100 is complete control, read-out: Ryegrass, Italian plant response rating
# Procedure, shortened: as §1
# [6] = test system: giant foxtail (Setaria faberii); experiment: Test A preemergence; conditions: Setaria faberi, pre-emergence, 240 h, 0 to 100 scale where 0 is no effect and 100 is complete control, read-out: Foxtail, Giant plant response rating
# Procedure, shortened: as §1
# [7] = test system: ragweed (common ragweed, Ambrosia elatior); experiment: Test A postemergence; conditions: Ambrosia artemisiifolia, post-emergence, 240 h
# Procedure, shortened: as §1
# [8] = test system: pigweed (Amaranthus retroflexus); experiment: Test A postemergence; conditions: Amaranthus retroflexus, post-emergence, 240 h
# Procedure, shortened: as §1
# corn (Zea mays) = experiment: Test A postemergence; conditions: Zea mays, post-emergence, 240 h
# Procedure, shortened: as §1
# [9] = test system: barnyardgrass (Echinochloa crus-galli); experiment: Test A postemergence; conditions: Echinochloa crus-galli, post-emergence, 240 h
# Procedure, shortened: as §1
# [10] = test system: wheat (Triticum aestivum); experiment: Test A postemergence; conditions: Triticum aestivum, post-emergence, 240 h
# Procedure, shortened: as §1
# Kochia (Kochia scoparia) [11] = experiment: Test A postemergence; conditions: Bassia scoparia, post-emergence, 240 h
# Procedure, shortened: as §1
# [12] = test system: blackgrass (Alopecurus myosuroides); experiment: Test A postemergence; conditions: Alopecurus myosuroides, post-emergence, 240 h
# Procedure, shortened: as §1
# [13] = test system: ryegrass, Italian (Italian ryegrass, Lolium multiflorum); experiment: Test A postemergence; conditions: Lolium multiflorum, post-emergence, 240 h
# Procedure, shortened: as §1
# [14] = test system: giant foxtail (Setaria faberii); experiment: Test A postemergence; conditions: Setaria faberi, post-emergence, 240 h
# Procedure, shortened: as §1
# [15] = test system: Galium (catchweed bedstraw, Galium aparine); experiment: Test A postemergence; conditions: Galium, post-emergence, 240 h
# Procedure, shortened: as §1
# [16] = test system: barnyardgrass (Echinochloa crus-galli); experiment: Test B flooded paddy test; conditions: Echinochloa crus-galli, 250 g ai/ha, Flood; 0 to 100 scale where 0 is no effect and 100 is complete control; read-out: Barnyardgrass plant response rating
# Procedure, shortened: (§2)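 Response scored visually against untreated controls, 0 = no effect and 100 = complete control, 13–15 d after treatment in the greenhouse. Compounds added to paddy water held 3 cm above soil surface. Treatment given at 2-leaf stage.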
# [17] = test system: ducksalad (Heteranthera limosa); experiment: Test B flooded paddy test; conditions: Heteranthera limosa, 250 g ai/ha, Flood; 0 to 100 scale where 0 is no effect and 100 is complete control; read-out: Ducksalad plant response rating
# Procedure, shortened: as §2
# rice (Oryra sativa) = experiment: Test B flooded paddy test; conditions: Oryza sativa, 250 g ai/ha, Flood; 0 to 100 scale where 0 is no effect and 100 is complete control; read-out: Rice plant response rating
# Procedure, shortened: as §2
# [18] = test system: sedge, umbrella (small-flower umbrella sedge, Cyperus difformis); experiment: Test B flooded paddy test; conditions: Cyperus difformis, 250 g ai/ha, Flood; 0 to 100 scale where 0 is no effect and 100 is complete control; read-out: Sedge, Umbrella plant response rating
# Procedure, shortened: as §2
# [19] = 125 g ai/ha, preemergence, approx. 10 d
smiles,measurement,setting,value
C=C(C)c1ccc([C@H]2CN(C)C(=O)[C@@H]2C(=O)Nc2cccc(F)c2C)cc1 [Compound 1150],pest or weed control at 31 g/ha,"[1]; 31 g ai/ha, Preemergence",0%
same,pest or weed control at 125 g/ha,[1]; [19],0%
same,pest or weed control at 31 g/ha,"[2]; 31 g ai/ha, Preemergence",0%
same,pest or weed control at 125 g/ha,[2]; [19],0%
same,pest or weed control at 31 g/ha,"[3]; 31 g ai/ha, Preemergence",0%
same,pest or weed control at 125 g/ha,[3]; [19],70%
same,pest or weed control at 31 g/ha,"Kochia (Kochia scoparia) [4]; 31 g ai/ha, Preemergence",0%
same,pest or weed control at 125 g/ha,Kochia (Kochia scoparia) [4]; [19],0%
same,pest or weed control at 31 g/ha,"[5]; 31 g ai/ha, Preemergence",0%
same,pest or weed control at 125 g/ha,[5]; [19],0%
same,pest or weed control at 31 g/ha,"[6]; 31 g ai/ha, Preemergence",30%
same,pest or weed control at 125 g/ha,[6]; [19],90%
same,pest or weed control at 125 g/ha,"[7]; 125 g ai/ha, postemergence, visual injury vs untreated controls after approx. 10 d, 0 = no effect, 100 = complete control, read-out: Ragweed plant response rating (0 to 100 scale)",0%
same,pest or weed control at 31 g/ha,"[7]; Postemergence, 31 g ai/ha, visual injury after approx. 10 d, 0 to 100 scale, 0 no effect, 100 complete control, read-out: Plant response rating, Ragweed",0%
same,pest or weed control at 125 g/ha,"[8]; 125 g ai/ha, postemergence, visual injury vs untreated controls after approx. 10 d, 0 = no effect, 100 = complete control, read-out: Pigweed plant response rating (0 to 100 scale)",0%
same,pest or weed control at 31 g/ha,"[8]; Postemergence, 31 g ai/ha, visual injury after approx. 10 d, 0 to 100 scale, 0 no effect, 100 complete control, read-out: Plant response rating, Pigweed",0%
same,plant injury at 125 g/ha,"corn (Zea mays); 125 g ai/ha, postemergence, visual injury on 0 to 100 scale (0 no effect, 100 complete control), approx. 10 d, read-out: Corn plant response rating",20%
same,"Corn plant response rating (crop injury, 0 = no effect, 100 = complete kill) at 31 g/ha","corn (Zea mays); Postemergence, 31 g ai/ha, visual injury after approx. 10 d, 0 to 100 scale, 0 no effect, 100 complete control",0%
same,pest or weed control at 125 g/ha,"[9]; 125 g ai/ha, postemergence, visual injury on 0 to 100 scale (0 no effect, 100 complete control), approx. 10 d, read-out: Barnyardgrass plant response rating",40%
same,pest or weed control at 31 g/ha,"[9]; Postemergence, 31 g ai/ha, visual injury after approx. 10 d, 0 to 100 scale, 0 no effect, 100 complete control, read-out: Plant response rating, Barnyardgrass",0%
same,plant injury at 125 g/ha,"[10]; 125 g ai/ha, postemergence, visual injury vs untreated controls after approx. 10 d, 0 = no effect, 100 = complete control, read-out: Wheat plant response rating (0 to 100 scale)",0%
same,plant injury at 31 g/ha,"[10]; Postemergence, 31 g ai/ha, visual injury after approx. 10 d, 0 to 100 scale, 0 no effect, 100 complete control, read-out: Plant response rating, Wheat",0%
same,pest or weed control at 125 g/ha,"Kochia (Kochia scoparia) [11]; 125 g ai/ha, postemergence, visual injury on 0 to 100 scale (0 no effect, 100 complete control), approx. 10 d, read-out: Kochia plant response rating",20%
same,pest or weed control at 31 g/ha,"Kochia (Kochia scoparia) [11]; Postemergence, 31 g ai/ha, visual injury after approx. 10 d, 0 to 100 scale, 0 no effect, 100 complete control, read-out: Plant response rating, Kochia",0%
same,pest or weed control at 125 g/ha,"[12]; 125 g ai/ha, postemergence, visual injury on 0 to 100 scale (0 no effect, 100 complete control), approx. 10 d, read-out: Blackgrass plant response rating",0%
same,pest or weed control at 31 g/ha,"[12]; Postemergence, 31 g ai/ha, visual injury after approx. 10 d, 0 to 100 scale, 0 no effect, 100 complete control, read-out: Plant response rating, Blackgrass",0%
same,pest or weed control at 125 g/ha,"[13]; 125 g ai/ha, postemergence, visual injury vs untreated controls after approx. 10 d, 0 = no effect, 100 = complete control, read-out: Ryegrass, Italian plant response rating (0 to 100 scale)",0%
same,pest or weed control at 31 g/ha,"[13]; Postemergence, 31 g ai/ha, visual injury after approx. 10 d, 0 to 100 scale, 0 no effect, 100 complete control, read-out: Plant response rating, Ryegrass, Italian",0%
same,pest or weed control at 125 g/ha,"[14]; 125 g ai/ha, postemergence, visual injury on 0 to 100 scale (0 no effect, 100 complete control), approx. 10 d, read-out: Foxtail, Giant plant response rating",50%
same,pest or weed control at 31 g/ha,"[14]; Postemergence, 31 g ai/ha, visual injury after approx. 10 d, 0 to 100 scale, 0 no effect, 100 complete control, read-out: Plant response rating, Foxtail, Giant",0%
same,pest or weed control at 125 g/ha,"[15]; 125 g ai/ha, postemergence, visual injury on 0 to 100 scale (0 no effect, 100 complete control), approx. 10 d, read-out: Galium plant response rating",20%
same,pest or weed control at 31 g/ha,"[15]; Postemergence, 31 g ai/ha, visual injury after approx. 10 d, 0 to 100 scale, 0 no effect, 100 complete control, read-out: Plant response rating, Galium",0%
same,pest or weed control at 250 g/ha,[16],0%
same,pest or weed control at 250 g/ha,[17],0%
same,pest or weed control at 250 g/ha,rice (Oryra sativa),0%
same,pest or weed control at 250 g/ha,[18],0%
